Test results from patent US9630991B2, “βsheet tapes ribbons in tissue engineering” (University of Leeds, priority 2002, dated 2017).
Entries after “also recorded” stand apart in the source; their conditions may differ. Counter-ions that a name gives are not always drawn. Where a SMILES comes first, the peptide text is derived from it. Where no end group is shown, it is not given here. [ ]: non-standard residue; d: D form. Orn = NCCC[C@H](N)C(=O)O

How the values were obtained:
[1] = Net charge of peptide at pH 7.5 in physiological solution; assay type: physicochemical; details: per peptide, pH 7.5, physiological solution
[2] = Self-assembly and gel formation in physiological solution / cell media; assay type: physicochemical; details: for peptide concentration for self-supporting gel: physiological conditions
Excerpt: A large number (dozens) of systematically varied peptides (typically 7-30 residues long) have been studied for soluble polymer and gel formation in cell media. […] Only peptides with a approximate net +2 or −2 charge per peptide at physiological pH=7.5, were able to form soluble polymers and gel cell media (The amount of net charge necessary per peptide to keep its polymers soluble in cell media will vary depending on the overall surface properties and solubility of the peptide tapes it forms). […] These peptides retained a predominantly monomeric state and their solutions in cell media were fluids up to around 40 mg/ml peptide concentration.
The rationally designed peptide P11-8 (Tables 1A and 1C) was dissolved in 145 mM NaCl, pH˜7.5 aqueous solution (the ionic strength and pH values of the solution were similar to those present in cell culture medium) or it was added directly in cell culture medium.
The fibrils of P11-8 entwined partly with each other forming a three dimensional network and turned the peptide solution in cell media into a homogeneous self-supporting gel at peptide concentration higher than 15 mg/ml.
The gel could be temporarily broken by mechanical agitation. The time it took the gel to reform depended on the peptide concentration, ranging from seconds for a 35 mg/ml peptide gel, to hours for a 15 mg/ml peptide gel.

[3] = Fibril dimensions measured from TEM images; assay type: physicochemical; details: physiological conditions, TEM
Procedure: For, electron microscopy, samples were examined using a Phillips CM10 TEM at 80-100 kV accelerating voltage. Gels were diluted to a peptide concentration of 20 μM seconds before application to a glow-discharged, carbon-coated, copper grid followed by coating with uranyl acetate solution (4% w/v in water).
The dimensions of the fibrils formed by these peptides are given in Table 2, and TEM images from which these measurements were obtained are shown in FIGS. 6A-6D. These dimensions are—the length of a peptide fibril (contour length, L), the length of a peptide fibril before it curves (persistence length, l), the length of a full twist of a peptide fibril (twist pitch, h) the width of a fibril at its widest point (ww) and the width of the fibril at its narrowest point as it twists (wn).

L929 fibroblast cells = assay: Cell density in peptide gels by ATPLite assay; assay type: cell-based, murine
Excerpt: After establishing that the peptides tested were not cytotoxic when placed in culture with L929 fibroblast cells, the next stage was assessing the suitability of the collagen peptide gels for use in supporting cell proliferation.

[4] = tested on: tissue surrounding the injection site; design: species or system mice; details: mouse, in vivo
Excerpt: Injection of P11-3 and P11-8 peptide solutions in cell media in mice has shown no effect of the presence of the peptide in the tissue surrounding the injection site as judged by histology after two and eight weeks following the peptide injection.

Compound | Net charge at pH 7.5 [1] | L, fibril contour length [3] | h, twist pitch [3] | l, fibril persistence length [3] | wn, width of the fibril at its narrowest point [3] | ww, width of the fibril at its widest point [3] | also measured
QQO^+FO^+WO^+FQQQ (QQ[Orn]F[Orn]W[Orn]FQQQ; not fully specified (N-terminus, C-terminus); printed as QQO+FO+WO+FQQQ) [Peptide P11-5] | +3 |  |  |  |  |  | 
CC(=O)N[C@@H](CCC(N)=O)C(=O)N[C@@H](CCC(N)=O)C(=O)N[C@@H](CCCNC(=N)N)C(=O)N[C@@H](CCC(N)=O)C(=O)N[C@@H](CCCN)C(=O)N[C@@H](CCC(N)=O)C(=O)N[C@@H](CCCN)C(=O)N[C@@H](CCC(N)=O)C(=O)N[C@@H](CCC(=O)O)C(=O)N[C@@H](CCC(N)=O)C(=O)N[C@@H](CCC(N)=O)C(N)=O [Peptide P11-19, CH3CO-Q-Q-R-Q-O-Q-O-Q-E-Q-Q-NH2] (Ac-QQRQ[Orn]Q[Orn]QEQQ-NH2) | +2 | 1.5-3 μm | 206-356 nm | 0.5-1 μm | 7-13 nm | 15-22 nm | peptide concentration for self-supporting gel [2]: 60 mg/mL; self-assembly / gelation at 30 mg·ml^−1 ([2]; physiological solution, 30 mg·ml^−1): does not self assemble; also recorded: did not gel
CC(=O)N[C@@H](CCC(N)=O)C(=O)N[C@@H](CCC(N)=O)C(=O)N[C@@H](CCCNC(=N)N)C(=O)N[C@@H](CCC(N)=O)C(=O)N[C@@H](CCC(=O)O)C(=O)N[C@@H](CCC(N)=O)C(=O)N[C@@H](CCC(=O)O)C(=O)N[C@@H](CCC(N)=O)C(=O)N[C@@H](CCC(=O)O)C(=O)N[C@@H](CCC(N)=O)C(=O)N[C@@H](CCC(N)=O)C(N)=O [Peptide P11-20, CH3CO-Q-Q-R-Q-E-Q-E-Q-E-Q-Q-NH2] (Ac-QQRQEQEQEQQ-NH2) | −2 | 0.9-2.8 μm | 202-363 nm | 0.4-1.5 μm | 8-15 nm | 14-20 nm | support of cell growth (L929 fibroblast cells; L929 cells in peptide gels): supported cell growth reasonably well; macroscopic appearance of gel (L929 fibroblast cells; at end of cell culture experiment): some signs of macroscopic degradation; peptide concentration for self-supporting gel [2]: > 20 mg/mL
CC(=O)N[C@H](C(=O)N[C@H](C(=O)N[C@@H](CCCNC(=N)N)C(=O)N[C@@H](Cc1ccccc1)C(=O)N[C@@H](CCCN)C(=O)N[C@@H](Cc1c[nH]c2ccccc12)C(=O)N[C@@H](CCCN)C(=O)N[C@@H](Cc1ccccc1)C(=O)N[C@@H](CCC(=O)O)C(=O)N[C@H](C(=O)N[C@H](C(N)=O)[C@@H](C)O)[C@@H](C)O)[C@@H](C)O)[C@@H](C)O [Peptide P11-18, CH3CO-T-T-R-F-O-W-O-F-E-T-T-NH2] (Ac-TTRF[Orn]W[Orn]FETT-NH2) | +2 | 1.4-4.2 μm | 142-236 nm | 0.5-1.7 μm | 7-11 nm | 11-21 nm | support of cell growth (L929 fibroblast cells; L929 cells in peptide gels): unsuccessful in supporting cell growth
CC(=O)N[C@@H](CO)C(=O)N[C@@H](CO)C(=O)N[C@@H](CCCNC(=N)N)C(=O)N[C@@H](Cc1ccccc1)C(=O)N[C@@H](CCC(=O)O)C(=O)N[C@@H](Cc1c[nH]c2ccccc12)C(=O)N[C@@H](CCC(=O)O)C(=O)N[C@@H](Cc1ccccc1)C(=O)N[C@@H](CCC(=O)O)C(=O)N[C@@H](CO)C(=O)N[C@@H](CO)C(N)=O [Peptide P11-9, CH3CO-S-S-R-F-E-W-E-F-E-S-S-NH2] (Ac-SSRFEWEFESS-NH2) | −2 | 1.1-5 μm | 118-236 nm | 0.4-1.3 μm | 3.5-7 nm | 7-12 nm | support of cell growth (L929 fibroblast cells; L929 cells in peptide gels): unsuccessful in supporting cell growth
QQR^+FQWQFQQQ (QQRFQWQFQQQ; self assembling peptide P11-3) |  |  |  |  |  |  | effect on tissue surrounding the injection site by histology [4]: no effect; fibrils and gels after sterilisation using an autoclave ([2]; cell media): reform after sterilisation using an autoclave
CC(=O)N[C@H](C(=O)N[C@H](C(=O)N[C@@H](CCCNC(=N)N)C(=O)N[C@@H](Cc1ccccc1)C(=O)N[C@@H](CCC(=O)O)C(=O)N[C@@H](Cc1c[nH]c2ccccc12)C(=O)N[C@@H](CCC(=O)O)C(=O)N[C@@H](Cc1ccccc1)C(=O)N[C@@H](CCC(=O)O)C(=O)N[C@H](C(=O)N[C@H](C(N)=O)[C@@H](C)O)[C@@H](C)O)[C@@H](C)O)[C@@H](C)O [Peptide P11-17, CH3CO-T-T-R-F-E-W-E-F-E-T-T-NH2] (Ac-TTRFEWEFETT-NH2) | −2 | 1.3-4.5 μm | 150-236 nm | 0.3-1.7 μm | 5-10 nm | 10-16 nm | 
QQE^-FE^-WE^-FE^±QQ (QQEFEWEFEQQ; self assembling peptide P11-23) | -4 |  |  |  |  |  | 
O=C(O)C(F)(F)F [TFA] |  |  |  |  |  |  | support of cell growth (L929 fibroblast cells; collagen gels supplemented with 0.9 mg·ml^−1 TFA): supported cell growth with no obvious detrimental effect on the cells; support of cell growth (L929 fibroblast cells; collagen gels supplemented with 5.1 mg·ml^−1 TFA): supported cell growth with no visible detrimental effect on cell growth
QQQFQWQFE^-QQ (QQQFQWQFEQQ; self assembling peptide P11-21) | -1 |  |  |  |  |  | 
CH3CO-Q-Q-R-F-E-W-E-F-E-Q-Q-NH2 (Ac-QQRFEWEFEQQ-NH2) [Peptide P11-4] | −2 | 1.2-7 μm | 132-360 nm | 0.7-1.4 μm | 5.5-8 nm | 8-14 nm | 
CH3CO-E-Q-E-F-E-W-E-F-E-Q-E-HN2 (Ac-EQEFEWEFEQE-NH2) [Peptide P11-13] | -6 |  |  |  |  |  | 
CH3CO-Q-Q-O-F-O-W-O-F-O-Q-Q-NH2 (Ac-QQ[Orn]F[Orn]W[Orn]F[Orn]QQ-NH2; SMILES CC(=O)N[C@@H](CCC(N)=O)C(=O)N[C@@H](CCC(N)=O)C(=O)N[C@@H](CCCN)C(=O)N[C@@H](Cc1ccccc1)C(=O)N[C@@H](CCCN)C(=O)N[C@@H](Cc1c[nH]c2ccccc12)C(=O)N[C@@H](CCCN)C(=O)N[C@@H](Cc1ccccc1)C(=O)N[C@@H](CCCN)C(=O)N[C@@H](CCC(N)=O)C(=O)N[C@@H](CCC(N)=O)C(N)=O) [Peptide P11-14] | +4 |  |  |  |  |  | 
QQQFE^-WE^-FE^±QQ (QQQFEWEFEQQ; self assembling peptide P11-22) | -3 |  |  |  |  |  | 
CC(=O)N[C@@H](CO)C(=O)N[C@@H](CO)C(=O)N[C@@H](CCCNC(=N)N)C(=O)N[C@@H](Cc1ccccc1)C(=O)N[C@@H](CCCN)C(=O)N[C@@H](Cc1c[nH]c2ccccc12)C(=O)N[C@@H](CCCN)C(=O)N[C@@H](Cc1ccccc1)C(=O)N[C@@H](CCC(=O)O)C(=O)N[C@@H](CO)C(=O)N[C@@H](CO)C(N)=O [Peptide P11-12, CH3CO-S-S-R-F-O-W-O-F-E-S-S-NH2] (Ac-SSRF[Orn]W[Orn]FESS-NH2) | +2 | 1.3-5 μm | 139-220 nm | 0.4-1.2 μm | 5-7 nm | 11-16 nm | support of cell growth (L929 fibroblast cells; L929 cells in peptide gels): unsuccessful in supporting cell growth
